Read-outs that look alike come from different tables or passages of the source.
Key:
NSCLC cancer patients [1] = assay: Response of NSCLC patients to TARCEVA therapy by 5B7/3C6 category (Example 7); format: in vivo, human; conditions: 150 mg/day orally
Protocol: (§1) Tissue arrays containing biopsy samples from at least 100 NSCLC cancer patients are obtained. Each patient is treated with TARCEVA™ (EGFR inhibitor) therapy with a dosage of 150 mg/day given orally. Each patient has post-therapy follow-up for up to 5 years. Each biopsy sample is fixed in 10% NBF and paraffin embedded. Five (5) micron sections of each biopsy sample are cut and arrayed on positively charged glass slides. The slides are stained with an RD-binding molecule (e.g., clone 5B7) and an ED-binding molecule (e.g., clone 3C6) according to the protocols in Example 2. The resulting stained array slides are scored by light microscopy by a pathologist according to the following criteria:
(§2) The score for each case is recorded in a database comparing the score for each binding molecule (e.g., 5B7 or 3C6). Approximately 65% of cases are expected to fall into category 1, 19% in category 2, <1% in category 3 and 15% in category 4. Patient outcome is directly related to the scoring category as indicated in Table 2 for an ID-based therapy.

HCC cancer patients = assay: Response of HCC patients to IRESSA therapy by 5B7/3C6 category (Example 11); format: in vivo, human; conditions: 200-500 mg/day orally
Protocol: Tissue arrays containing biopsy samples from at least 100 HCC cancer patients are obtained (see, for example, samples collected in JS 0414, “A Pilot Study of Adjuvant Therapy of Gefitinib (Iressa, ZD1839) in Patients with Resectable Hepatocellular Carcinoma”, ClinicalTrials.gov Identifier No. NCT00228501). Each patient is treated with IRESSA™ (EGFR-inhibitor) therapy with a dosage of 200-500 mg/day given orally. Each patient has post-therapy follow-up for at least 12 months. Each biopsy sample is fixed in a standard fixative (e.g., 10% NBF) and paraffin embedded. Sections of each biopsy sample (e.g., 5 μm thick) are cut and arrayed on positively charged glass slides. The slides are stained with an RD-binding molecule (e.g., clone 5B7) and an ED-binding molecule (e.g., clone 3C6) according to the protocols in Example 2. The resulting stained array slides are scored by light microscopy by a pathologist according to the following criteria:
as §2, with “60%” for “65%”, “13%” for “19%”, “5%” for “<1%”, “22%” for “15%”

NSCLC cancer patients [2] = assay: Response of NSCLC patients to IRESSA therapy by 5B7/3C6 category (Example 6); format: in vivo, human; conditions: 250 mg/day orally
Protocol: as §1, with “IRESSA™ (EGFR-inhibitor)” for “TARCEVA™ (EGFR inhibitor)”, “250” for “150”
as §2

[3] = tested on: non-small cell lung cancer; conditions: cited from earlier work
breast cancer patients = assay: Response of breast cancer patients to lapatinib therapy by 5B7/3C6 category (Example 10); format: in vivo, human; conditions: 1250-1500 mg/day orally
Protocol: Tissue arrays containing biopsy samples from at least 100 breast cancer patients are obtained. Each patient is treated with lapatinib (TYKERB™) (HER1 (EGFR)/HER2-inhibitor) with a dosage of 1250-1500 mg/day given orally. Each patient has post-therapy follow-up for at least 20 months. Each biopsy sample is fixed in a standard fixative and paraffin embedded. Sections of each biopsy sample (e.g., 5 μm thick) are cut and arrayed on positively charged glass slides. The slides are stained with an RD-binding molecule (e.g., clone 5B7) and an ED-binding molecule (e.g., clone 3C6) according to the protocols in Example 2. The resulting stained array slides are scored by light microscopy by a pathologist according to the following criteria:
as §2, with “20%” for “65%”, “16%” for “19%”, “3%” for “<1%”, “61%” for “15%”

clone 5B7 = assay: Peptide inhibition study (epitope mapping) on EGFR-positive lung squamous cell carcinoma; format: binding; conditions: 1000-fold molar excess of peptide, pre-incubated 1 hour at room temperature
Description: The epitope for the EGFR regulatory-domain-specific monoclonal antibody, clone 5B7, was mapped by peptide inhibition studies. Because the L2G Peptide was used as the immunogen and was used to screen for positive clones, it was known that the 5B7 epitope must be within that 19-amino acid sequence (see SEQ ID NO: 2). The L2G Peptide, a peptide containing the 13 C-terminal amino acid residues of the L2G Peptide, and a peptide containing the six N-terminal amino acid residues of the L2G Peptide plus three additional N-terminal residues (i.e., QIS) corresponding to the respective positions in the human EGFR sequence. The peptides were synthesized by Genemed Synthesis, Inc. (South San Francisco, Calif.).
A known EGFR-positive lung squamous cell carcinoma was chosen for the peptide inhibition study. The 5B7 antibody was pre-incubated with each peptide for 1 hour at room temperature before application to the tissue. A 1000-fold molar excess of peptide compared to antibody was used.

[4] = NSCLC patients in categories 1 and 3
[5] = NSCLC patients in categories 2 and 4

C#Cc1cccc(Nc2ncnc3cc(OCCOC)c(OCCOC)cc23)c1 [erlotinib]
patient response to therapy (NSCLC cancer patients [1]; [4]): objective response
patient response to therapy (NSCLC cancer patients [1]; [5]): not significantly respond

COc1cc2ncnc(Nc3ccc(F)c(Cl)c3)c2cc1OCCCN1CCOCC1 [gefitinib]
patient response to therapy (HCC cancer patients; HCC patients in categories 1 and 3): objective response
patient response to therapy (HCC cancer patients; HCC patients in categories 2 and 4): not significantly respond
patient response to therapy (NSCLC cancer patients [2]; [4]): objective response
patient response to therapy (NSCLC cancer patients [2]; [5]): not significantly respond
NSCLC patients who responded to the drug ([3]; 250 gefitinib per day): about 10%
NSCLC patients who responded to the drug ([3]; 500 gefitinib per day): about 20%

CS(=O)(=O)CCNCc1ccc(-c2ccc3ncnc(Nc4ccc(OCc5cccc(F)c5)c(Cl)c4)c3c2)o1 [lapatinib]
patient response to therapy (breast cancer patients; breast cancer patients in categories 1 and 3): objective response
patient response to therapy (breast cancer patients; breast cancer patients in categories 2 and 4): not significantly respond

LDNPDYQQDFFPKEAKPNG (listed as Homo sapiens) [Peptide 3]
inhibition of 5B7 binding to tissue (clone 5B7): completely inhibited

Peptide 1: amino acids 1164-1175 of SEQ ID NO: 1 (QISLDNPDYQQD; listed as Homo sapiens)
inhibition of 5B7 binding to tissue (clone 5B7): partial inhibition

Peptide 2: amino acids 7-19 of SEQ ID NO: 2; 13 C-terminal amino acid residues of the L2G Peptide (QQDFFPKEAKPNG; listed as Homo sapiens)
inhibition of 5B7 binding to tissue (clone 5B7): complete inhibition
